Measurements: patent US20160262390A1, “FIELD APPLICATION OF SUGARS TO INCREASE CROP YIELD” (Minn-Dak Farmers Cooperative, priority 2015, published 2016)

Tests used:
sugarbeets = assay: Pre-planting sugar application on sugarbeets, Foxhome; type: in vivo, sugarbeet; conditions: for Recoverable Sugar Yield / Recoverable Sugar Yield Increase Compared to Check Average / Sugarbeet Yield: MN
Procedure: (§1) The field trials were conducted simultaneously in two different planting locations for each of the crops. One location was near the community of Foxhome in Wilkin County, Minnesota (hereafter referred to as “Foxhome”) while the second location was near the community of Hickson in Cass County, North Dakota (hereafter referred to as “Hickson”). The Foxhome and Hickson locations are on opposite sides of the Red River along the border of Minnesota and North Dakota and separated by a distance exceeding 40 miles. Generally, the Foxhome location has heavier clay loam soil conditions while Hickson has sandy loam soil conditions.
(§2) At each of the Foxhome and Hickson locations, a total of thirty two (32) treatments were conducted for each crop (sugarbeets, soybeans, corn, wheat). Each treatment was replicated four times arranged in a Randomized Complete Block (RCB) Design in the same field. Each replication consisted of a plot measuring twenty five (25) feet in length and eleven (11) feet in width. In selecting the particular seed types for evaluation, popular commercial varieties to the region were utilized. For the row crops (sugarbeets, soybeans, corn) each replication included a width of six (6) rows with twenty two (22) inch row spacing and having a row length of twenty five (25) feet. The wheat was planted in accordance with standard commercial practices. To reduce/eliminate any treatment impacts between adjacent plots for the crops, only the four (4) interior rows of each plot were treated and evaluated for row crops, while for wheat, only the interior 7.33 feet of each plot were treated and evaluated. With the exception of the treatment program applied to the individual plots, which will be discussed below, conventional commercial growing practices for each planting location were otherwise followed during the field trials.
(§3) The treatment regimen at each location for each of the tested crops included two (2) untreated treatments (Treatments 31 and 32) in which no sugar was applied and constitute the control elements. […] Six (6) treatments (Treatments 13-18) included the liquid application of high fructose corn syrup (hereafter “HFCS”) at varying rates. Six treatments (Treatments 19-24) included the liquid application of dextrose (hereafter “LIQDEX”) at varying rates. Six (6) treatments (Treatments 25-30) included the application of powdered cellulose (hereafter “POWCEL”) at varying rates. For the sugar applied in a solid form, granulated or powdered, field application was conducted via conventional broadcast spreading. For the sugar applied in a liquid form, a liquid concentrate was mixed and diluted with water in a tank and a conventional sprayer was configured such that the liquid was sprayed so as to have the same sugar equivalent (measured in pounds/per acre) as the sugar in solid form. Regardless of whether the sugar was applied as a solid or liquid, the sugar was applied directly onto the soil before spring tillage, lightly worked into the ground and followed by planting of the crop seed in the treated ground. A summary of application rates for each plot treatments are contained in Table 7 below and were used consistently with each of the crops (sugarbeets, soybeans, corn, wheat).
To test the impact of pre-planting application rates and sugar source on sugarbeets, identical field trials using Crystal® brand ACH 260 sugarbeet seed were conducted at the Foxhome and Hickson locations. Planting of the sugarbeet seed and harvest of the sugarbeets were conducted on as close to the same dates as practical so as to have essentially the same length growing season.

soybeans = assay: Pre-planting sugar application on soybeans, Foxhome; type: in vivo, soybean; conditions: for Yield / Yield Increase Compared to Check: MN
Procedure: as §1
as §2, with “trials. While the individual plots at the same location, Hickson or Foxhome, experienced essentially the same growing conditions throughout the season, there were various differences associated with localized precipitation, general growing conditions, soil classification and the like, which contributed to performance differences between the Hickson and Foxhome locations.” for “trials.”
as §3
(§4) To test the impact of pre-planting application rates and sugar source on soybeans, identical field trials using Syngenta brand soybean seed were conducted at the Foxhome and Hickson locations. Planting of the soybean seed and harvest of the soybeans were conducted on approximately the same dates so as to have essentially the same growing season. […]

wheat [1] = assay: Pre-planting sugar application on wheat, Foxhome; type: in vivo; conditions: for Yield / Yield Increase Compared to Check Average: MN
Procedure: as §1
as §2, with “trials. While the individual plots at the same location, Hickson or Foxhome, experienced essentially the same growing conditions throughout the season, there were various differences associated with localized precipitation, general growing conditions, soil classification and the like, which contributed to performance differences between the Hickson and Foxhome locations.” for “trials.”
as §3
as §4, with “wheat,” for “soybeans,”, “Westbred Mayville wheat” for “Syngenta brand soybean”, “wheat” for “soybean”, “wheat” for “soybeans”, “on” for “on approximately”

wheat [2] = assay: Pre-planting sugar application on wheat, Hickson; type: in vivo; conditions: for Yield / Yield Increase Compared to Check: ND
Procedure: as §1
as §2, with “trials. While the individual plots at the same location, Hickson or Foxhome, experienced essentially the same growing conditions throughout the season, there were various differences associated with localized precipitation, general growing conditions, soil classification and the like, which contributed to performance differences between the Hickson and Foxhome locations.” for “trials.”
as §3
as §4, with “wheat,” for “soybeans,”, “Westbred Mayville wheat” for “Syngenta brand soybean”, “wheat” for “soybean”, “wheat” for “soybeans”, “on” for “on approximately”

[3] = six rates (25-250 pounds/Acre) per sugar, thirty in all

SMILES: OC[C@H]1O[C@@](CO)(O[C@H]2O[C@H](CO)[C@@H](O)[C@H](O)[C@H]2O)[C@@H](O)[C@@H]1O [GS, sucrose]
- Recoverable Sugar Yield (sugarbeets; pre-planting 25 pounds/Acre): 8856 Pounds/Acre
- Recoverable Sugar Yield Increase Compared to Check Average (sugarbeets; pre-planting 25 pounds/Acre): 3.25%
- Sugarbeet Yield (sugarbeets; pre-planting 25 pounds/Acre): 32.03 Tons/Acre
- Recoverable Sugar Yield (sugarbeets; pre-planting 50 pounds/Acre): 8707 Pounds/Acre
- Recoverable Sugar Yield Increase Compared to Check Average (sugarbeets; pre-planting 50 pounds/Acre): 1.52%
- Sugarbeet Yield (sugarbeets; pre-planting 50 pounds/Acre): 32.27 Tons/Acre
- Recoverable Sugar Yield (sugarbeets; pre-planting 100 pounds/Acre): 8100 Pounds/Acre
- Recoverable Sugar Yield Increase Compared to Check Average (sugarbeets; pre-planting 100 pounds/Acre): −5.56%
- Sugarbeet Yield (sugarbeets; pre-planting 100 pounds/Acre): 30.85 Tons/Acre
- Recoverable Sugar Yield (sugarbeets; pre-planting 150 pounds/Acre): 9080 Pounds/Acre
- Recoverable Sugar Yield Increase Compared to Check Average (sugarbeets; pre-planting 150 pounds/Acre): 5.86%
- Sugarbeet Yield (sugarbeets; pre-planting 150 pounds/Acre): 31.94 Tons/Acre
- Recoverable Sugar Yield (sugarbeets; pre-planting 200 pounds/Acre): 8345 Pounds/Acre
- Recoverable Sugar Yield Increase Compared to Check Average (sugarbeets; pre-planting 200 pounds/Acre): −2.70%
- Sugarbeet Yield (sugarbeets; pre-planting 200 pounds/Acre): 30.69 Tons/Acre
- Recoverable Sugar Yield (sugarbeets; pre-planting 250 pounds/Acre): 9002 Pounds/Acre
- Recoverable Sugar Yield Increase Compared to Check Average (sugarbeets; pre-planting 250 pounds/Acre): 4.96%
- Sugarbeet Yield (sugarbeets; pre-planting 250 pounds/Acre): 31.80 Tons/Acre
- number of treatments showing yield improvement compared to check average (sugarbeets; [3]): four of the six
- Yield (soybeans; pre-planting 25 pounds/Acre): 70.03 Bushels/Acre
- Yield Increase Compared to Check (soybeans; pre-planting 25 pounds/Acre): 2.17%
- Yield (soybeans; pre-planting 50 pounds/Acre): 70.87 Bushels/Acre
- Yield Increase Compared to Check (soybeans; pre-planting 50 pounds/Acre): 3.40%
- Yield (soybeans; pre-planting 100 pounds/Acre): 70.78 Bushels/Acre
- Yield Increase Compared to Check (soybeans; pre-planting 100 pounds/Acre): 3.27%
- Yield (soybeans; pre-planting 150 pounds/Acre): 71.45 Bushels/Acre
- Yield Increase Compared to Check (soybeans; pre-planting 150 pounds/Acre): 4.25%
- Yield (soybeans; pre-planting 200 pounds/Acre): 67.22 Bushels/Acre
- Yield Increase Compared to Check (soybeans; pre-planting 200 pounds/Acre): −1.93%
- Yield (soybeans; pre-planting 250 pounds/Acre): 66.99 Bushels/Acre
- Yield Increase Compared to Check (soybeans; pre-planting 250 pounds/Acre): −2.26%
- number of treatments showing yield improvement compared to check treatment 31 (soybeans; [3]): four of the six
- Yield (wheat [1]; pre-planting 25 pounds/Acre): 73.58 Bushels/Acre
- Yield Increase Compared to Check Average (wheat [1]; pre-planting 25 pounds/Acre): 13.55%
- Yield (wheat [1]; pre-planting 50 pounds/Acre): 70.01 Bushels/Acre
- Yield Increase Compared to Check Average (wheat [1]; pre-planting 50 pounds/Acre): 8.04%
- Yield (wheat [1]; pre-planting 100 pounds/Acre): 59.45 Bushels/Acre
- Yield Increase Compared to Check Average (wheat [1]; pre-planting 100 pounds/Acre): −8.26%
- Yield (wheat [1]; pre-planting 150 pounds/Acre): 66.65 Bushels/Acre
- Yield Increase Compared to Check Average (wheat [1]; pre-planting 150 pounds/Acre): 2.85%
- Yield (wheat [1]; pre-planting 200 pounds/Acre): 59.64 Bushels/Acre
- Yield Increase Compared to Check Average (wheat [1]; pre-planting 200 pounds/Acre): −7.96%
- Yield (wheat [1]; pre-planting 250 pounds/Acre): 59.73 Bushels/Acre
- Yield Increase Compared to Check Average (wheat [1]; pre-planting 250 pounds/Acre): −7.82%
- number of treatments showing yield improvement compared to check average (wheat [1]; [3]): three of the six
- Yield (wheat [2]; pre-planting 25 pounds/Acre): 51.82 Bushels/Acre
- Yield Increase Compared to Check (wheat [2]; pre-planting 25 pounds/Acre): 5.45%
- Yield (wheat [2]; pre-planting 50 pounds/Acre): 52.47 Bushels/Acre
- Yield Increase Compared to Check (wheat [2]; pre-planting 50 pounds/Acre): 6.78%
- Yield (wheat [2]; pre-planting 100 pounds/Acre): 49.94 Bushels/Acre
- Yield Increase Compared to Check (wheat [2]; pre-planting 100 pounds/Acre): 1.63%
- Yield (wheat [2]; pre-planting 150 pounds/Acre): 44.54 Bushels/Acre
- Yield Increase Compared to Check (wheat [2]; pre-planting 150 pounds/Acre): −9.36%
- Yield (wheat [2]; pre-planting 200 pounds/Acre): 50.25 Bushels/Acre
- Yield Increase Compared to Check (wheat [2]; pre-planting 200 pounds/Acre): 2.26%
- Yield (wheat [2]; pre-planting 250 pounds/Acre): 50.40 Bushels/Acre
- Yield Increase Compared to Check (wheat [2]; pre-planting 250 pounds/Acre): 2.56%
- number of treatments showing yield improvement compared to check average (wheat [2]; [3]): five of the six
